Laboratory results: patent US11306079B2, “3-(5-amino-pyrazin-2-yl)-benzenesulfonamide derivatives and related compounds as PI3K-gamma kinase inhibitors” (Incyte Corporation, priority 2017, dated 2022)
pIC50: −log10 of the molar value.

Tests used:
[1] = test system: Phosphorylated Ribosomal Protein S6 (RPS6) in THP-1 cells; assay: THP-1 RPS6 ELISA Assay; type: cell-based; conditions: Homo sapiens; serum starved THP-1 cells, 2 hours with compound, 10 nM MCP-1 for 15 minutes, Phospho-RPS6 ELISA; read-out: PI3Kγ_THP1_RPS6_ELISA IC50
Procedure, shortened: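 Phospho-RPS6 in lysates measured by ELISA at 450 nm, corrected at 540 nm, after MCP-1 challenge (10 nM, 15 min) of THP-1 cells that were starved overnight and exposed to test compound for 2 h at 37° C, 2×10^5 cells/well. Curve fit of percent inhibition gives IC50.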

[2] = target: PI3Kδ (p110δ/p85α) Recombinant Human Protein (Homo sapiens (Human), UniProt O00329); assay: PI3Kδ Scintillation Proximity Assay; type: biochemical; conditions: 20 μM PIP2, 2 μM ATP, 3.4 nM PI3Kδ, 120 min, room temperature
Procedure, shortened: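 IC50 was fitted to percent solvent-control activity from SPA scintillation counts after WGA bead capture of 33P-labelled lipid product. Reaction: 120 min, room temperature, 3.4 nM p110δ/p85α, 20 μM PIP2, 2 μM ATP with tracer, MOPS pH 6.7 buffer containing MgCl2, DTT, CHAPS, 2% DMSO.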

[3] = target: PI3Kγ (p110γ) Recombinant Human Protein (Homo sapiens (Human), UniProt P48736); assay: PI3K-γ Scintillation Proximity Assay; type: biochemical; conditions: 20 μM PIP2, 2 μM ATP, 13 nM PI3Kγ, 120 min, room temperature
Procedure, shortened: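 Recombinant human p110γ (13 nM) phosphorylated 20 μM PIP2 with 2 μM ATP plus [γ-33P]ATP in 20 mM MOPS pH 6.7, 10 mM MgCl2, 5 mM DTT, 0.03% CHAPS, 2% DMSO, 120 min at room temperature. Radiolabelled product was captured on WGA SPA beads and counted. IC50 came from curves of percent solvent-control activity.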

Sequence of PI3Kγ (p110γ) Recombinant Human Protein (P48736 whole entry): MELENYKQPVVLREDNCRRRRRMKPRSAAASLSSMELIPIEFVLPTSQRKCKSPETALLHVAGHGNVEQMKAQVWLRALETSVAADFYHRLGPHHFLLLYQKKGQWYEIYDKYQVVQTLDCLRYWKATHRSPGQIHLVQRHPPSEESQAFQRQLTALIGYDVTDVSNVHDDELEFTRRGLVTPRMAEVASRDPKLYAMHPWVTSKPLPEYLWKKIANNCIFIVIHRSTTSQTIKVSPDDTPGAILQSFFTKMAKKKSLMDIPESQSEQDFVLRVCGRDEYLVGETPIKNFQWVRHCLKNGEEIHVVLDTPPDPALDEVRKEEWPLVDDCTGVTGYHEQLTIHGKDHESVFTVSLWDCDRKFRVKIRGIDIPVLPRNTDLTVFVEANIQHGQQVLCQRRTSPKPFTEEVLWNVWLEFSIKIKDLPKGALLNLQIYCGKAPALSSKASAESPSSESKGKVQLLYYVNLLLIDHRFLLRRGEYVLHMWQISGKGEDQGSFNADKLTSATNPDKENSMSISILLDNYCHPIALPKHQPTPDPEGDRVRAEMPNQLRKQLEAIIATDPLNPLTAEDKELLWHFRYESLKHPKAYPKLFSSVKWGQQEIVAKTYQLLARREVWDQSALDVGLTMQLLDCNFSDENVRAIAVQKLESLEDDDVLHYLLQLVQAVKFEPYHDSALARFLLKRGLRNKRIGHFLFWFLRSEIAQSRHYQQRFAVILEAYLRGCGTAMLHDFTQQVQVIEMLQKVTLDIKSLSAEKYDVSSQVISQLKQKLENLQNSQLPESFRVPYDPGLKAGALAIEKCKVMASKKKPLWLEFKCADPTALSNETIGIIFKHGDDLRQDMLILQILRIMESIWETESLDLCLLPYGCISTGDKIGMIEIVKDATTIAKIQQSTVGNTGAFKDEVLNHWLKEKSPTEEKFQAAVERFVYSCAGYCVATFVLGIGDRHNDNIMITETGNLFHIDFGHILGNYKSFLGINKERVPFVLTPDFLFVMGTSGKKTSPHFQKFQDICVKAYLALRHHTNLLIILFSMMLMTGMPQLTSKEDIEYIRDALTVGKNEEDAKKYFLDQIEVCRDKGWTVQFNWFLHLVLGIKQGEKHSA
Sequence of PI3Kδ (p110δ/p85α) Recombinant Human Protein (O00329 whole entry): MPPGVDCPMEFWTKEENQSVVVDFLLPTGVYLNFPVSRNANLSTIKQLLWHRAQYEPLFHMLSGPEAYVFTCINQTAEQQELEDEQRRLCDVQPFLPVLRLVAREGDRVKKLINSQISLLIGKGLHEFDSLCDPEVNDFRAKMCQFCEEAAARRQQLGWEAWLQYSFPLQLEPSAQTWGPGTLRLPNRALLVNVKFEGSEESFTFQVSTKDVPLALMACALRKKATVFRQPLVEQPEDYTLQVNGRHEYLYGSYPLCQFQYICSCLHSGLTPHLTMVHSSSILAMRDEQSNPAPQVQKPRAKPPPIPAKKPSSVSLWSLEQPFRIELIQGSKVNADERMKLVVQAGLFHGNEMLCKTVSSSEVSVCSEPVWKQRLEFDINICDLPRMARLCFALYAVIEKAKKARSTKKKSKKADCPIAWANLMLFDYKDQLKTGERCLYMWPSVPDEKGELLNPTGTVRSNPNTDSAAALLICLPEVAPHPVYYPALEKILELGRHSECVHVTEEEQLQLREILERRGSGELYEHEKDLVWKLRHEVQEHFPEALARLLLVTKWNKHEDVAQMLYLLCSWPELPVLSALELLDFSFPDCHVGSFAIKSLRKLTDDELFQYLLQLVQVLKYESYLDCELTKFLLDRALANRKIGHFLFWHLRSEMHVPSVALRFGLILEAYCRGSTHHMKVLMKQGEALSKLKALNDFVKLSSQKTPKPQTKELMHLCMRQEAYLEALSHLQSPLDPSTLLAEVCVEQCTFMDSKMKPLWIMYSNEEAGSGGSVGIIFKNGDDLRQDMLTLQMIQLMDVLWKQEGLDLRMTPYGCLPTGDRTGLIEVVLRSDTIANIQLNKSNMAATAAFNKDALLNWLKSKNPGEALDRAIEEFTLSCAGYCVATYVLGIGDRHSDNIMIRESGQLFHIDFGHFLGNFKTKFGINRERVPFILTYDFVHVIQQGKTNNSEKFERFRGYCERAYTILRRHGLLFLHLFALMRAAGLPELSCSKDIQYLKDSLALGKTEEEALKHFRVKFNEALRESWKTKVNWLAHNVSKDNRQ
Sequence of PI3Kδ (p110δ/p85α) Recombinant Human Protein (P27986 whole entry partner): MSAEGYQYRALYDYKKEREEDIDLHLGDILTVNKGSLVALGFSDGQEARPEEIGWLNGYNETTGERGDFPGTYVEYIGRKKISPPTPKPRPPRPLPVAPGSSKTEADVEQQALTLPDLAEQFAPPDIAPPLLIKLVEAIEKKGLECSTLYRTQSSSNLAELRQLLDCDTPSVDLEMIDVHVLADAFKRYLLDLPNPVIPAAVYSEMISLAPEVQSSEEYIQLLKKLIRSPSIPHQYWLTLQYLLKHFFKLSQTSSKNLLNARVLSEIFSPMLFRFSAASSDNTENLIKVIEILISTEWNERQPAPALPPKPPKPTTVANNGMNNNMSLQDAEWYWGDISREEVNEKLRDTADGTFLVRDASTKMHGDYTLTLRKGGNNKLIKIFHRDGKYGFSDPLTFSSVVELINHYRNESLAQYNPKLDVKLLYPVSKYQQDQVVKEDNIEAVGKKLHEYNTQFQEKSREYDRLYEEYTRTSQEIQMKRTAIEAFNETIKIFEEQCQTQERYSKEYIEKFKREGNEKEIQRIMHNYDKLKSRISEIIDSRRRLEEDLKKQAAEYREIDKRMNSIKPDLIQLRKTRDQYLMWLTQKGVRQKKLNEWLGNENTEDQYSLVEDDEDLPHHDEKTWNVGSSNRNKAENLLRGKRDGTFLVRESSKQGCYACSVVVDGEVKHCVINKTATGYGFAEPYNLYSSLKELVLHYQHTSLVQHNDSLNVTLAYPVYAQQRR

SMILES | pIC50 [1] | pIC50 [2] | pIC50 [3]
[2H]C([2H])([2H])c1ccc(S(=O)(=O)NC23CCN(CC2)C3)cc1-c1cnc(N)c(-c2ncn(C([2H])([2H])[2H])n2)n1 [Example 92, 3-(5-amino-6-(1-(methyl-d3)-1H-1,2,4-triazol-3-yl)pyrazin-2-yl)-N-(1-azabicyclo[2.2.1]heptan-4-yl)-4-(methyl-d3)benzenesulfonamide] | ≥ 6.30 | ≥ 7.00 | ≥ 7.00
Cc1ccc(S(=O)(=O)NC23CCN(CC2)C3)cc1-c1cnc(N)c(-n2cccn2)n1 [Example 93, 3-(5-amino-6-(1H-pyrazol-1-yl)pyrazin-2-yl)-N-(1-azabicyclo[2.2.1]heptan-4-yl)-4-methylbenzenesulfonamide] | ≥ 7.00 | ≥ 7.00 | ≥ 7.00
[2H]C([2H])([2H])c1ccc(S(=O)(=O)NC23CCN(CC2)C3)cc1-c1cnc(N)c(-c2cnco2)n1 [Example 94, 3-(5-amino-6-(oxazol-5-yl)pyrazin-2-yl)-N-(1-azabicyclo[2.2.1]heptan-4-yl)-4-(methyl-d3)benzenesulfonamide] | ≥ 7.00 | ≥ 6.30 | ≥ 7.00
[2H]C([2H])([2H])c1ccc(S(=O)(=O)NC23CCN(CC2)C3)cc1-c1cnc(N)c(-c2ccncn2)n1 [Example 95, 3-(5-amino-6-(pyrimidin-4-yl)pyrazin-2-yl)-N-(1-azabicyclo[2.2.1]heptan-4-yl)-4-(methyl-d3)benzenesulfonamide] | ≥ 7.00 | ≥ 7.00 | ≥ 7.00
